Results published in PubChem BioAssay (NCI).
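Assay format: 96-well plates, 48-hour exposure. TGI is the concentration that stops growth completely.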

Legend:
Test in all cases: NCI-60 cell line screen, 48 h
OVCAR-4 ovarian = test system: OVCAR-4 ovarian
NCI-H226 lung = test system: NCI-H226 lung
786-0 renal = test system: 786-0 renal
M14 melanoma = test system: M14 melanoma
TK-10 renal = test system: TK-10 renal
ACHN renal = test system: ACHN renal
MDA-N = test system: MDA-N
RPMI-8226 leukemia = test system: RPMI-8226 leukemia
SF-268 CNS = test system: SF-268 CNS
HS 578T breast = test system: HS 578T breast
SK-MEL-5 melanoma = test system: SK-MEL-5 melanoma
HOP-62 NSCLC = test system: HOP-62 NSCLC
LOX IMVI melanoma = test system: LOX IMVI melanoma
COLO 205 colon = test system: COLO 205 colon
SK-MEL-2 melanoma = test system: SK-MEL-2 melanoma
CCRF-CEM leukemia = test system: CCRF-CEM leukemia
SK-OV-3 ovarian = test system: SK-OV-3 ovarian
HCT-116 colon = test system: HCT-116 colon
A549 NSCLC = test system: A549 NSCLC
OVCAR-8 ovarian = test system: OVCAR-8 ovarian
SF-295 CNS = test system: SF-295 CNS
SR leukemia = test system: SR leukemia
OVCAR-5 ovarian = test system: OVCAR-5 ovarian
HCT-15 colon = test system: HCT-15 colon
SNB-19 CNS = test system: SNB-19 CNS
IGROV1 ovarian = test system: IGROV1 ovarian
NCI/ADR-RES ovarian = test system: NCI/ADR-RES ovarian
NCI-H23 lung = test system: NCI-H23 lung
MCF7 breast = test system: MCF7 breast
HCC-2998 colon = test system: HCC-2998 colon
MOLT-4 leukemia = test system: MOLT-4 leukemia
UO-31 renal = test system: UO-31 renal
BT-549 breast = test system: BT-549 breast
UACC-257 melanoma = test system: UACC-257 melanoma
KM12 colon = test system: KM12 colon
SW-620 colon = test system: SW-620 colon
SF-539 CNS = test system: SF-539 CNS
OVCAR-3 ovarian = test system: OVCAR-3 ovarian
K-562 leukemia = test system: K-562 leukemia
MDA-MB-231 breast = test system: MDA-MB-231 breast
NCI-H460 lung = test system: NCI-H460 lung
U251 CNS = test system: U251 CNS
SK-MEL-28 melanoma = test system: SK-MEL-28 melanoma
HT29 colon = test system: HT29 colon
MDA-MB-435 = test system: MDA-MB-435
SNB-75 CNS = test system: SNB-75 CNS
SN12C renal = test system: SN12C renal
PC-3 prostate = test system: PC-3 prostate
MALME-3M melanoma = test system: MALME-3M melanoma
CAKI-1 renal = test system: CAKI-1 renal
UACC-62 melanoma = test system: UACC-62 melanoma
EKVX NSCLC = test system: EKVX NSCLC
DU-145 prostate = test system: DU-145 prostate
NCI-H522 lung = test system: NCI-H522 lung
HOP-92 NSCLC = test system: HOP-92 NSCLC
RXF 393 renal = test system: RXF 393 renal
A498 renal = test system: A498 renal
HL-60(TB) leukemia = test system: HL-60(TB) leukemia

SMILES: C[C@@]1(Br)C[C@@](C)(Cl)[C@@H](Br)CC1/C=C/Cl (stereo partly drawn)
- TGI (OVCAR-4 ovarian): > 100 µM
- TGI (NCI-H226 lung): 22.8 µM
- TGI (786-0 renal): 30.2 µM
- TGI (M14 melanoma): 33.2 µM
- TGI (TK-10 renal): 38 µM
- TGI (ACHN renal): 32 µM
- TGI (MDA-N): 29.7 µM
- TGI (RPMI-8226 leukemia): 73.7 µM
- TGI (SF-268 CNS): 23 µM
- TGI (HS 578T breast): 30.6 µM
- TGI (SK-MEL-5 melanoma): 26.4 µM
- TGI (HOP-62 NSCLC): 30.7 µM
- TGI (LOX IMVI melanoma): 31.4 µM
- TGI (COLO 205 colon): 29 µM
- TGI (SK-MEL-2 melanoma): 33.2 µM
- TGI (CCRF-CEM leukemia): 27.7 µM
- TGI (SK-OV-3 ovarian): 37 µM
- TGI (HCT-116 colon): 22.9 µM
- TGI (A549 NSCLC): 61.7 µM
- TGI (OVCAR-8 ovarian): 29.5 µM
- TGI (SF-295 CNS): 27.4 µM
- TGI (SR leukemia): 41 µM
- TGI (OVCAR-5 ovarian): 29.1 µM
- TGI (HCT-15 colon): > 100 µM
- TGI (SNB-19 CNS): 45.3 µM
- TGI (IGROV1 ovarian): 86.1 µM
- TGI (NCI/ADR-RES ovarian): 25.8 µM
- TGI (NCI-H23 lung): > 100 µM
- TGI (MCF7 breast): 31.7 µM
- TGI (HCC-2998 colon): > 100 µM
- TGI (MOLT-4 leukemia): 33.8 µM
- TGI (UO-31 renal): 37.4 µM
- TGI (BT-549 breast): 36 µM
- TGI (UACC-257 melanoma): 37.3 µM
- TGI (KM12 colon): 29.6 µM
- TGI (SW-620 colon): 91.8 µM
- TGI (SF-539 CNS): 31 µM
- TGI (OVCAR-3 ovarian): 28.4 µM
- TGI (K-562 leukemia): > 100 µM
- TGI (MDA-MB-231 breast): 36.2 µM
- TGI (NCI-H460 lung): > 100 µM
- TGI (U251 CNS): 42.6 µM
- TGI (SK-MEL-28 melanoma): 53.7 µM
- TGI (HT29 colon): 29.6 µM
- TGI (MDA-MB-435): 39.2 µM
- TGI (SNB-75 CNS): 25.4 µM
- TGI (SN12C renal): 28.2 µM
- TGI (PC-3 prostate): 29.3 µM

SMILES: COc1ccc(C(=O)NCCC2CN(S(=O)(=O)C(F)(F)F)c3ccccc32)c(OC)c1 (stereo not drawn)
- TGI (OVCAR-4 ovarian): > 100 µM
- TGI (786-0 renal): > 100 µM
- TGI (M14 melanoma): > 100 µM
- TGI (ACHN renal): > 100 µM
- TGI (MDA-N): > 100 µM
- TGI (RPMI-8226 leukemia): > 100 µM
- TGI (HS 578T breast): > 100 µM
- TGI (SK-MEL-5 melanoma): 43.6 µM
- TGI (MALME-3M melanoma): 35.3 µM
- TGI (HOP-62 NSCLC): > 100 µM
- TGI (COLO 205 colon): > 100 µM
- TGI (SK-MEL-2 melanoma): > 100 µM
- TGI (CAKI-1 renal): > 100 µM
- TGI (CCRF-CEM leukemia): 70.3 µM
- TGI (UACC-62 melanoma): 80.1 µM
- TGI (SK-OV-3 ovarian): > 100 µM
- TGI (HCT-116 colon): > 100 µM
- TGI (A549 NSCLC): > 100 µM
- TGI (SF-295 CNS): > 100 µM
- TGI (SR leukemia): > 100 µM
- TGI (EKVX NSCLC): > 100 µM
- TGI (OVCAR-5 ovarian): > 100 µM
- TGI (DU-145 prostate): > 100 µM
- TGI (NCI-H522 lung): 46.8 µM
- TGI (HCT-15 colon): > 100 µM
- TGI (SNB-19 CNS): > 100 µM
- TGI (HOP-92 NSCLC): > 100 µM
- TGI (IGROV1 ovarian): > 100 µM
- TGI (NCI/ADR-RES ovarian): 87.2 µM
- TGI (NCI-H23 lung): > 100 µM
- TGI (MCF7 breast): > 100 µM
- TGI (HCC-2998 colon): > 100 µM
- TGI (MOLT-4 leukemia): > 100 µM
- TGI (UO-31 renal): > 100 µM
- TGI (UACC-257 melanoma): > 100 µM
- TGI (KM12 colon): 71.3 µM
- TGI (SW-620 colon): > 100 µM
- TGI (OVCAR-3 ovarian): > 100 µM
- TGI (K-562 leukemia): > 100 µM
- TGI (RXF 393 renal): > 100 µM
- TGI (A498 renal): > 100 µM
- TGI (MDA-MB-231 breast): > 100 µM
- TGI (NCI-H460 lung): > 100 µM
- TGI (U251 CNS): > 100 µM
- TGI (SK-MEL-28 melanoma): > 100 µM
- TGI (HT29 colon): 73.8 µM
- TGI (MDA-MB-435): > 100 µM
- TGI (PC-3 prostate): > 100 µM

SMILES: C=Cc1nc2nnc(CCCCCCCCc3nnc4nc(C=C)[nH]n34)n2[nH]1
- TGI (OVCAR-4 ovarian): > 100 µM
- TGI (NCI-H226 lung): > 100 µM
- TGI (786-0 renal): > 100 µM
- TGI (M14 melanoma): > 100 µM
- TGI (TK-10 renal): > 100 µM
- TGI (ACHN renal): > 100 µM
- TGI (MDA-N): > 100 µM
- TGI (SF-268 CNS): > 100 µM
- TGI (SK-MEL-5 melanoma): > 100 µM
- TGI (MALME-3M melanoma): > 100 µM
- TGI (HOP-62 NSCLC): > 100 µM
- TGI (LOX IMVI melanoma): > 100 µM
- TGI (COLO 205 colon): > 100 µM
- TGI (SK-MEL-2 melanoma): > 100 µM
- TGI (CAKI-1 renal): > 100 µM
- TGI (CCRF-CEM leukemia): > 100 µM
- TGI (SK-OV-3 ovarian): > 100 µM
- TGI (HCT-116 colon): > 100 µM
- TGI (A549 NSCLC): > 100 µM
- TGI (OVCAR-8 ovarian): > 100 µM
- TGI (SF-295 CNS): > 100 µM
- TGI (EKVX NSCLC): > 100 µM
- TGI (OVCAR-5 ovarian): > 100 µM
- TGI (DU-145 prostate): > 100 µM
- TGI (HCT-15 colon): > 100 µM
- TGI (SNB-19 CNS): > 100 µM
- TGI (IGROV1 ovarian): > 100 µM
- TGI (NCI/ADR-RES ovarian): > 100 µM
- TGI (HL-60(TB) leukemia): > 100 µM
- TGI (NCI-H23 lung): > 100 µM
- TGI (MCF7 breast): > 100 µM
- TGI (HCC-2998 colon): > 100 µM
- TGI (MOLT-4 leukemia): > 100 µM
- TGI (UO-31 renal): > 100 µM
- TGI (BT-549 breast): > 100 µM
- TGI (UACC-257 melanoma): > 100 µM
- TGI (KM12 colon): > 100 µM
- TGI (SW-620 colon): > 100 µM
- TGI (SF-539 CNS): > 100 µM
- TGI (OVCAR-3 ovarian): > 100 µM
- TGI (K-562 leukemia): > 100 µM
- TGI (RXF 393 renal): > 100 µM
- TGI (A498 renal): > 100 µM
- TGI (MDA-MB-231 breast): > 100 µM
- TGI (NCI-H460 lung): > 100 µM
- TGI (U251 CNS): > 100 µM
- TGI (SK-MEL-28 melanoma): > 100 µM
- TGI (HT29 colon): > 100 µM
- TGI (MDA-MB-435): > 100 µM
- TGI (SNB-75 CNS): > 100 µM
- TGI (SN12C renal): > 100 µM
- TGI (PC-3 prostate): > 100 µM
